Entries after “also recorded” stand apart in the source; their conditions may differ. Like-named read-outs stand apart in the source and are kept apart here. One block for each molecule: values may come before it.
Columns and labels:
[1] = test system: GPR81 receptor / intracellular cAMP levels in astrocytes; assay: FRET measurements of cAMP in living primary astrocytes transfected with AKAR2; type: cell-based, rat
Description: Astrocytes expressing Epac1-camps or AKAR2 FRET construct were examined with a Plan NeoFluoar 40×/1.3 Oil DIC immersion objective (Carl Zeiss, Jena, Germany) and 2-fold zoom factor using Zeiss LSM510 META confocal microscope (Carl Zeiss, Jena, Germany). Cells were excited at 458 nm and images (512×512) were acquired every 3.5 s or 7 s using Lambda stack acquisition. Emission spectra were collected from META detector in eight channels (lambda stack) ranging from 470 nm to 545 nm, each with a 10.7-nm width. Two-channel (CFP and YFP) images were generated from lambda stacks by analytical software “Extract channels”. […] YFP and CFP fluorescence intensities were quantified within a region of interest selected for individual cell expressing Epac1-camps or AKAR2 using LSM 510 META software. In the graphs, FRET signal is reported as the ratio of YFP to CFP fluorescence signal after subtracting the background fluorescence from both YFP and CFP signals using Sigma Plot. […]
The changes in YFP/CFP fluorescence emission ratio were normalized to baseline ratio values. Single-exponential (F=F0+c×exp (−t/τ)) decay functions or single-exponential rise to maximum functions (F=F0+c×(1−exp(−t/τ))) were fitted to the diagrams with YFP/CFP fluorescence emission ratios using SigmaPlot. The time-constant (τ) and YFP/CFP emission ratio amplitudes (c) were determined from the fitted curves. […]

astrocytes [2] = details: within an hour
Description: (§1) LSM 510 Meta software was used to measure cell area and perimeter of isolated Epac1-camps positive astrocytes before and after treatment of cell with different reagents.

astrocytes [3] = assay: Exocytotic fusion events of Alexa Fluor 546 dextran-labeled vesicles in cultured astrocytes; type: cell-based; details: for number of ATP triggered fusion events per cell: 1 mM ATP + 1 μM ADR or 10 μM Iso
Experimental: Time-lapse confocal images were obtained every 2 s for 10 min with the inverted Zeiss LSM780 and Zeiss LSM510 META confocal microscopes with oil-immersion plan apochromatic objective (63×, 1.4 NA) and 543-nm He—Ne laser excitation. […] Cells were scanned by eye for an individual exocytotic event by rapidly replaying the movie in forward and reverse directions. The onset of exocytosis was defined as the first frame showing a significant decrease in Alexa Fluor^546-dextran. A circular region of interest was centered on the spot where the event occurred, and changes in the fluorescence intensities of Alexa Fluor^546-dextran were monitored over time.

[Ca2+]i in astrocytes = Fluo-4 AM measurements of [Ca2+]i in cultured astrocytes; type: cell-based; details: for effect on hypotonicity-elicited periodic elevations in [Ca2+]i: 1 μM ADR or 10 μM Iso applied after hypotonic medium; for intracellular calcium levels on simultaneous treatment with hypotonic medium: 1 μM ADR or 10 μM Iso with hypotonic medium; for effect on ATP-induced elevation in cytosolic calcium levels: 1 mM ATP + 1 μM ADR or 10 μM Iso; for oscillations in intracellular calcium levels: agent alone: 1 μM ADR; for oscillations in intracellular calcium levels / intracellular Ca2+ levels (F/F0) within first 100 s after stimulation: 10 μM Iso; for intracellular Ca2+ levels (F/F0) within first 100 s after stimulation: agent alone: 1 mM ATP
Experimental: Live astrocytes were incubated for 30 min at room temperature in medium containing 2 μM of fluorescent dye Fluo-4 AM (Molecular Probes, Invitrogen, Eugene, Oreg., USA). Astrocytes were then transferred to dye-free standard saline solution for at least 30 min before experimentation to allow for cleavage of the AM ester group. Time lapse images were obtained every 3.5 s for up to 10 min with the inverted Zeiss LSM780 confocal microscope with oil-immersion plan apochromatic objective (63×, 1.4 NA) and 488-nm Ar-Ion laser excitation. Emission light was acquired with a 505-530-nm bandpass emission filter. […] Average fluorescence intensity before stimulation of each cell was subtracted from intensities after stimulation (ΔF). Average fluorescence intensity changes normalized to baseline fluorescence intensity (F/F0) were determined for the first 100 s after stimulation.

[4] = test system: intracellular cAMP levels in astrocytes; assay: FRET measurements of cAMP in living primary astrocytes transfected with Epac1-camps; details: for effect on ADR triggered FRET response: 1 μM ADR
Description: Astrocytes expressing Epac1-camps or AKAR2 FRET construct were examined with a Plan NeoFluoar 40×/1.3 Oil DIC immersion objective (Carl Zeiss, Jena, Germany) and 2-fold zoom factor using Zeiss LSM510 META confocal microscope (Carl Zeiss, Jena, Germany). Cells were excited at 458 nm and images (512×512) were acquired every 3.5 s or 7 s using Lambda stack acquisition. Emission spectra were collected from META detector in eight channels (lambda stack) ranging from 470 nm to 545 nm, each with a 10.7-nm width. Two-channel (CFP and YFP) images were generated from lambda stacks by analytical software “Extract channels”. Channels with emission spectra 470- and 481-nm and emission spectra 513-, 524-, and 534-nm were extracted to CFP channel and YFP channel, respectively. YFP and CFP fluorescence intensities were quantified within a region of interest selected for individual cell expressing Epac1-camps or AKAR2 using LSM 510 META software. In the graphs, FRET signal is reported as the ratio of YFP to CFP fluorescence signal after subtracting the background fluorescence from both YFP and CFP signals using Sigma Plot. The values of FRET signals were normalized (set to 1.0) at the onset of the experiments. The decrease in FRET signals reflects an increase in [cAMP]i.
500 μM 3-Chloro-5-hydroxybenzoic acid (3-Cl-5-HBA; GPR81 receptor exogenous agonist).
The changes in YFP/CFP fluorescence emission ratio were normalized to baseline ratio values. Single-exponential (F=F0+c×exp (−t/τ)) decay functions or single-exponential rise to maximum functions (F=F0+c×(1−exp(−t/τ))) were fitted to the diagrams with YFP/CFP fluorescence emission ratios using SigmaPlot. The time-constant (τ) and YFP/CFP emission ratio amplitudes (c) were determined from the fitted curves. F is YFP/CFP emission ratio at time t, F0 is baseline YFP/CFP emission ratio, c is YFP/CFP emission ratio amplitude of F(t=0)−F0, and τ is the time constant of individual exponential component.

astrocytes [5] = assay: Hypotonically induced cell swelling (cell surface area) of astrocytes; type: cell-based; details: pretreated cells, hypotonic medium ~60% of control osmolarity
Description: as §1

intracellular cAMP levels (AKAR2 YFP/CFP ratio; uprise = cAMP increase) ([1]; 500 μM 3-Cl-5-HBA): increase in intracellular cAMP levels
Structure (SMILES): O=C(O)c1cc(O)cc(Cl)c1 [3-Cl-5-HBA]

EC50 ([4]; Rattus norvegicus, Astrocyte, read-out: concentration of ADR at which 50% of maximum cAMP increase was observed (EC50), maximum YFP/CFP ratio response, Epac1-camps, dose-response): ~30 nM
EC50 ([4]; read-out: concentration of ADR at which 50% of maximum cAMP increase was observed (EC50), maximum YFP/CFP ratio response, Epac1-camps, dose-response): 29 ± 0.1 nM
Structure (SMILES): CNCC(O)c1ccc(O)c(O)c1 (stereo not shown) [ADR, adrenaline]
decrease in cell area (astrocytes [2]): 5-10%
increase in cell perimeter (astrocytes [2]): 30-50%
number of ATP triggered fusion events per cell (astrocytes [3]): reduce the number of exocytotic fusion events; also recorded: diminished
frequency of calcium oscillations compared with hypotonic medium-stimulated cells ([Ca2+]i in astrocytes; 1 μM ADR): more frequent
effect on hypotonicity-elicited periodic elevations in [Ca2+]i ([Ca2+]i in astrocytes): attenuated; also recorded: ceased
intracellular calcium levels on simultaneous treatment with hypotonic medium ([Ca2+]i in astrocytes): transient increase in intracellular calcium levels, which was followed by a decline to basal levels
effect on ATP-induced elevation in cytosolic calcium levels ([Ca2+]i in astrocytes): diminishes the elevation in cytosolic calcium levels
oscillations in intracellular calcium levels ([Ca2+]i in astrocytes): induced oscillations in intracellular calcium levels
intracellular Ca2+ levels (F/F0) within first 100 s after stimulation ([Ca2+]i in astrocytes; 1 μM ADR): increased
increase in FRET response to hypotonic medium (decrease in cAMP) ([4]; ADR pre-treated cells, hypotonic medium): reversible and slowly declined to the baseline
hypotonically induced cell swelling (increase in cell surface area) (astrocytes [5]): reduces hypotonically induced cell swelling; also recorded: reduced

Structure (SMILES): Nc1ncnc2c1ncn2[C@@H]1O[C@H](COP(=O)(O)OP(=O)(O)OP(=O)(O)O)[C@@H](O)[C@H]1O [ATP, adenosine-5′-triphosphate]
exocytotic fusion release events (astrocytes [3]; 1 mM ATP): triggered exocytotic fusion release events
intracellular Ca2+ levels (F/F0) within first 100 s after stimulation ([Ca2+]i in astrocytes; 1 μM ADR): increased

Structure (SMILES): C[C@H]1O[C@@H](n2cnc3c(N)ncnc32)C[C@@H]1O [DDA, 2′,5′-dideoxiadenosine]
effect on ADR triggered FRET response ([4]; 100 μM DDA): slower decay kinetics

Structure (SMILES): CC(C)Cn1c(=O)n(C)c(=O)c2[nH]cnc21 [IBMX]
effect on Epac1-camps response to FSK ([4]; 200 μM IBMX with 50 μM FSK): increased Epac1-camps response to AC activator FSK

Structure (SMILES): CC(C)NCC(O)c1ccc(O)c(O)c1 (stereo not shown) [Iso, isoprenaline]
number of ATP triggered fusion events per cell (astrocytes [3]): diminished
effect on hypotonicity-elicited periodic elevations in [Ca2+]i ([Ca2+]i in astrocytes): ceased
intracellular calcium levels on simultaneous treatment with hypotonic medium ([Ca2+]i in astrocytes): transient increase in intracellular calcium levels, which was followed by a decline to basal levels
effect on ATP-induced elevation in cytosolic calcium levels ([Ca2+]i in astrocytes): diminishes the elevation in cytosolic calcium levels
oscillations in intracellular calcium levels ([Ca2+]i in astrocytes): not
intracellular Ca2+ levels (F/F0) within first 100 s after stimulation ([Ca2+]i in astrocytes; 1 μM ADR): no significant difference
hypotonically induced cell swelling (increase in cell surface area) (astrocytes [5]): reduced

Structure (SMILES): CC(C)NCC(O)COc1cccc2ccccc12 (stereo not shown) [Pro, propranolol]
effect on ADR triggered FRET response ([4]; 1 μM Pro): completely prevented

Structure (SMILES): C[C@H](O)C(=O)[O-].[Na+] [lactate, Sodium L-lactate]
intracellular cAMP levels (Epac1-camps YFP/CFP ratio; decline = cAMP increase) ([4]; 20 mM lactate): increase in intracellular cAMP levels
intracellular cAMP levels (AKAR2 YFP/CFP ratio; uprise = cAMP increase) ([1]; 20 mM lactate): increase in intracellular cAMP levels
